From ChEMBL document CHEMBL1146205, “Isatin sulfonamide analogs containing a Michael addition acceptor: a new class of caspase 3/7 inhibitors” (J Med Chem, 2007)
pIC50: −log10 of the molar value.

Assays:
[1] = Partition coefficient of the compound, log P; assay type: physicochemical; conditions: octanol/water
Caspase-1 = target: T1, Caspase-1 (Homo sapiens, UniProt P29466); test: Inhibition of human recombinant caspase 1
T1 sequence (P29466 whole entry): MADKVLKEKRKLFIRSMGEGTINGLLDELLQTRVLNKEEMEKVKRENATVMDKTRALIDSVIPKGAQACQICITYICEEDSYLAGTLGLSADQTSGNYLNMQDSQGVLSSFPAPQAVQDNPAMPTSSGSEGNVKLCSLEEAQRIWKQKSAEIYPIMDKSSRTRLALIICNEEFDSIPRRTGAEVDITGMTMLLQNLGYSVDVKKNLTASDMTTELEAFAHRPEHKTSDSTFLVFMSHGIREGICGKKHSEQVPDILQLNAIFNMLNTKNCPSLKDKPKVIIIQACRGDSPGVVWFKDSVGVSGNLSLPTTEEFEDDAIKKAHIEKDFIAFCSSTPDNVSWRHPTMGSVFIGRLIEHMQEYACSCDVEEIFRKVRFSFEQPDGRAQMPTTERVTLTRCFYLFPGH

Caspase-6 = target: T2, Caspase-6 (Homo sapiens, UniProt P55212); test: Inhibition of human recombinant caspase 6
T2 sequence (P55212 whole entry): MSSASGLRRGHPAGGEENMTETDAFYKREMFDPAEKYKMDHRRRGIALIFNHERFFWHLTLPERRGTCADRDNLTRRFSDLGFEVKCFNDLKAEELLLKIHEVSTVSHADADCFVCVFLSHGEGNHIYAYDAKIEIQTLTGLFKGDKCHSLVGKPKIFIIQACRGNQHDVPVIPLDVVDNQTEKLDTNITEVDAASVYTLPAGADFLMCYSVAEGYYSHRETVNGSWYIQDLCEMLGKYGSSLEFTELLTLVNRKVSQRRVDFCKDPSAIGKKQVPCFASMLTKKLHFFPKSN

Caspase-8 = Caspase-8 (Homo sapiens, UniProt Q14790); test: Inhibition of human recombinant caspase 8
Caspase-7 = target: T3, Caspase-7 (Homo sapiens, UniProt P55210); test: Inhibition of human recombinant caspase 7
T3 sequence (P55210 whole entry): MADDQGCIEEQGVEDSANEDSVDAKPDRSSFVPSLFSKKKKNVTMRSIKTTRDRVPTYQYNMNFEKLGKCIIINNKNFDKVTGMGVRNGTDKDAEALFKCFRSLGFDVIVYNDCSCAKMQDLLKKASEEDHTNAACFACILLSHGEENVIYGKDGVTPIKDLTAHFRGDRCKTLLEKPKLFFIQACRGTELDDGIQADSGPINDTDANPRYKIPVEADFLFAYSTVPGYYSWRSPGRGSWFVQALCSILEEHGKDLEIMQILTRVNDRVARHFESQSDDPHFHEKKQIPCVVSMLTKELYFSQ

Caspase-3 = target: T4, Caspase-3 (Homo sapiens, UniProt P42574); test: Inhibition of human recombinant caspase 3
T4 sequence (P42574 whole entry): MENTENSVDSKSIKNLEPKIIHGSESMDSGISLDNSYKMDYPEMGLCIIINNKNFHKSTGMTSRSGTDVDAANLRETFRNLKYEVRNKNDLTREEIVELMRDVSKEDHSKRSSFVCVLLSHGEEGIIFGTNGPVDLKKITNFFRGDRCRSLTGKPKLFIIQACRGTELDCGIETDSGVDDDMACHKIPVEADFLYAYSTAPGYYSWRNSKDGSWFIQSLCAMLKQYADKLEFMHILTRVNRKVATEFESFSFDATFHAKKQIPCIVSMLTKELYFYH

Chain of Caspase-8 (Q14790 217-374 limits assumed): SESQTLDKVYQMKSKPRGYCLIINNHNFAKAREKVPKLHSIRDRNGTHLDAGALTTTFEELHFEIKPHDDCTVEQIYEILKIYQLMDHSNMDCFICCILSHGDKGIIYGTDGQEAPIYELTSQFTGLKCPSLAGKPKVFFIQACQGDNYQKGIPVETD
Chain of Caspase-8 (Q14790 385-479 limits assumed): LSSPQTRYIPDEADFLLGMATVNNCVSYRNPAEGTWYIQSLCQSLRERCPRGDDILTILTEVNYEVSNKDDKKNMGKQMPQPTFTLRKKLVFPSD

| logP [1] | pIC50 (Caspase-1) | pIC50 (Caspase-6) | pIC50 (Caspase-8) | pIC50 (Caspase-7) | pIC50 (Caspase-3) | Structure (SMILES) |
| --- | --- | --- | --- | --- | --- | --- |
| 3.5 | 5.21 | 6.04 | < 4.30 | 7.29 | 7.56 | N#CC(C#N)=C1C(=O)N(Cc2ccccc2)c2ccc(S(=O)(=O)N3CCC[C@H]3COc3ccccc3)cc21 |
| 1.71 | 5.55 | 6.16 | < 4.30 | 6.11 | 6.92 | CN1C(=O)C(=C(C#N)C#N)c2cc(S(=O)(=O)N3CCC[C@H]3COc3ccccc3)ccc21 |
| 1.07 | 5.74 | 6.39 | < 4.30 | 5.80 | 6.57 | N#CC(C#N)=C1C(=O)Nc2ccc(S(=O)(=O)N3CCC[C@H]3COc3ccccc3)cc21 |
| 4.28 | 5.24 | 6.08 | < 4.30 | 7.04 | 7.70 | N#CC(C#N)=C1C(=O)N(Cc2ccc(Br)cc2)c2ccc(S(=O)(=O)N3CCC[C@H]3COc3ccccc3)cc21 |
| 4.19 | – | – | – | – | – | O=C1C(=O)N(Cc2ccc(OCCF)cc2)c2ccc(S(=O)(=O)N3CCC[C@H]3COc3ccccc3)cc21 |
| 1.77 | 5.57 | 6.19 | < 4.30 | 7.55 | 8.11 | N#CC(C#N)=C1C(=O)N(Cc2ccc(O)cc2)c2ccc(S(=O)(=O)N3CCC[C@H]3COc3cccnc3)cc21 |
| 3.22 | 5.47 | 6.29 | < 4.30 | 7.58 | 8.29 | N#CC(C#N)=C1C(=O)N(Cc2ccc(Br)cc2)c2ccc(S(=O)(=O)N3CCC[C@H]3COc3cccnc3)cc21 |
| 2.36 | 5.41 | 6.21 | < 4.30 | 7.53 | 8.11 | COc1ccc(CN2C(=O)C(=C(C#N)C#N)c3cc(S(=O)(=O)N4CCC[C@H]4COc4cccnc4)ccc32)cc1 |
| 2.45 | 5.49 | 6.08 | < 4.30 | 7.48 | 8.12 | N#CC(C#N)=C1C(=O)N(Cc2ccccc2)c2ccc(S(=O)(=O)N3CCC[C@H]3COc3cccnc3)cc21 |
| 2.77 | 5.64 | 6.13 | < 4.30 | 6.90 | 7.50 | N#CC(C#N)=C1C(=O)N(Cc2ccc(O)cc2)c2ccc(S(=O)(=O)N3CCC[C@H]3COc3ccccc3)cc21 |

| Structure (SMILES) | logP [1] | pIC50 (Caspase-1) | pIC50 (Caspase-6) | pIC50 (Caspase-8) | pIC50 (Caspase-7) | pIC50 (Caspase-3) |
| --- | --- | --- | --- | --- | --- | --- |
| O=C1C(=O)N(Cc2ccc(Br)cc2)c2ccc(S(=O)(=O)N3CCC[C@H]3COc3ccccc3)cc21 | 4.82 | < 4.82 | 5.05 | < 4.30 | 7.46 | 8.01 |
| O=C1C(=O)N(Cc2ccc(Br)cc2)c2ccc(S(=O)(=O)N3CCC[C@H]3COc3cccnc3)cc21 | 3.76 | < 4.82 | 5.30 | < 4.30 | 8.18 | 8.44 |
| O=C1C(=O)N(Cc2ccc(O)cc2)c2ccc(S(=O)(=O)N3CCC[C@H]3COc3cccnc3)cc21 | 2.25 | < 4.82 | 5.02 | < 4.30 | 7.93 | 8.41 |
